The values that follow come from patent publication US20250092345A1, “INTER ORGAN PLATFORM FOR MICROPHYSIOLOGICAL SYSTEM ON A CHIP” (THE TRUSTEES OF COLUMBIA UNIVERSITY IN THE CITY OF NEW YORK, priority 2020, published 2025).

The conditions of data set [1]: cited from earlier work.
The test system of data set [2] is non-metastatic and metastatic GFP-luciferase ES cell lines (RD-ES, SK-N-MC). The data set can be described thus: Luminescence viability of GFP-luciferase ES cell monolayers. It is filed as cell-based, human. To be noted: 12 μM over 72 hours; both the non-metastatic and metastatic cell lines. The method, then:
(§1) MTT viability assay was used to determine drug toxicity, with luminescence generated by viable cells measured at the endpoint (10^4 cells per well, mean±s.e.m., n=3). […] In order to determine cancer cell viability, cells were lysed and treated with luciferin using a Bright-Glo™ assay, with subsequent luminescence measured (10^4 cells per well, mean±s.e.m., n=3).
(§2) Cell viability was analyzed using a previously established protocol. Cancer cell viability was measured for GFP-Luciferase labelled cancer cells using ONE-Glo luciferase substrate that was prepared according to manufacturer's protocol (Promega). Samples were collected following 3, 7, and 21 days cycles of linsitinib treatment. Where noted, longitudinal cell viability was also assessed using luminescence, though at the cost of signal strength. Briefly, in vivo grade VivoGlo™ Luciferin (Promega) was made at a 200× stock concentration (30 mg/ml) in water, added to sample culture media at a 1:200 dilution, and scanned using a spectrophotometer (Biotek). Some of the IC50 values were determined using cell viability data generated using an MTT assay (RealTime-Glo™ MT Cell Viability Assay, Promega) that were analyzed according to manufacturer's protocol.

In data set [3] the test system is non-metastatic TE-ES (RD-ES). The data set can be described thus: Non-metastatic engineered ES bone tumor (TE-ES) in isolated culture, linsitinib. It is filed as cell-based, human.
Text: The effects of linsitinib were studied in an experiment performed according to the 3-week treatment cycle used in the clinical trial (3 days of drug administration followed by 4 days without the drug, in 3 cycles), with luminescence signal serving as an indicator of cancer cell viability within the TE-ES.
Determining the effects of linsitinib on ES cells and osteoblasts within the engineered ES bone tumors across a 3-week clinical drug treatment regimen is shown in FIGS. 33A-33B. […] Supernatants were collected from each individual sample across the duration of the drug treatments and were analyzed for osteoblast function (OCN, OPN) and for cytotoxicity (LDH) (mean±s.e.m., n=3).
Two weeks following the initiation of osteogenic differentiation, aggregates of ES tumor cells were prepared as described previously, using 0.3×10^6 cells per aggregate. After 1 week of culture, corresponding to the end of bone tissue culture (3 weeks), the primary ES cell aggregates were placed into the engineered bone constructs (3 aggregates per construct, placed apart of each other). Tumor models were established for two different types of primary ES cells: non-metastatic (RD-ES) and metastatic (SK-N-MC). Tissue engineered RD-ES and SK-N-MC tumors were cultured in the RPMI and EMEM media, respectively, supplemented with 10% FBS and 1% penicillin/streptomycin. Bone constructs cultured without tumor cell aggregates (TE-bone) in RPMI and EMEM media were used as controls.
Specifically, linsitinib was dissolved at a 10 mM concentration in DMSO (Corning) and mixed in with the respective cell medium at a […] concentration unless otherwise noted. Vehicle treatments involved just the addition of DMSO at identical volumes as a control. Tissues were randomly assigned to experimental groups. Medium was changed every day.
To assess apoptosis, paraffin embedded tissue sections were first deparaffinized with CitriSolv, rehydrated with graded series of ethanol washes, and then stained with a Click-iT® TUNEL Alexa Fluor® imaging assay (Thermo Fisher Scientific). Following nuclear counterstaining with DAPI (Life Technologies), the TUNEL labelled slides were imaged with an IX81 inverted fluorescent microscope (Olympus) and a Pike F032B camera (ALLIED Vision), using NIS-Elements AR software, and processed using ImageJ (NIH). Four representative images per condition were then analyzed using the previously developed automatic TUNEL cell counter plugin for ImageJ to quantify DAPI^+ cells and TUNEL^+ cells.
as §2
Osteocalcin (OCN), osteopontin (OPN), and lactic acid dehydrogenase (LDH) secreted levels were all measured using a similar approach.

Data set [4] relates to non-metastatic and metastatic ES cell lines (RD-ES, SK-N-MC). The data set can be described thus: MTT viability assay in ES cell monolayers. The class given is cell-based, human. To be noted: 0-100 μM over 72 hours. The method, then:
as §1, §2
(Tetrazolium dyes change colour on reduction, which living cells bring about.)

Another data set concerns the target T1, IGF-1 receptor (Homo sapiens, UniProt P08069).
T1 construct: endogenous in cells; host or cells: RD-ES (ATCC HTB-166) and SK-N-MC (ATCC HTB-10) Ewing sarcoma cell lines
Put plainly: Phospho-IGF1R ELISA in ES cell monolayers. It is filed as cell-based. To be noted: 12 μM for 6 hours. On the technique in general: ELISA stands for enzyme-linked immunosorbent assay.

For data set [5], the system named is engineered cardiac tissues. Put plainly: Cardiac tissue in the integrated platform with microfluidic perfusion, linsitinib. It is filed as cell-based, human. To be noted: after linsitinib exposure. The method, then: The TE-ES and cardiac tissues were then cultured in the integrated platform with perfusion of mixed media. Linsitinib was introduced into the reservoir and delivered to tissues via circulation of perfusate and diffusion into the tissues.
Human iPS cell-derived cardiomyocytes at day 13 of differentiation were combined with normal human dermal fibroblasts (NHDF; Lonza) at a ratio of 75% human iPS-derived cardiomyocytes and 25% NHDF, for a total of 1 million cells per tissue. The hydrogel was formed by mixing 33 mg/mL of human fibrinogen (Sigma-Aldrich) with 25 U/mL of human thrombin (Sigma-Aldrich), at an 84:16 ratio. […]
To measure the cardiac contractility online, we took contractility videos of the tissues that were analyzed using the native MATLAB code we previously developed. Tissue contractility was measured by tracking the change in tissue area as a function of time. […] Absolute differences in cell area from the baseline frame were then calculated to create a time course of cell area changes over time. The resulting time courses were analyzed using a native MATLAB (MATHWorks) automated peak finding algorithm to determine locations of maximum cell contractions in the time profiles. Beat period lengths were determined from the length of time between the pairs of local maxima, and the beat frequencies were determined by inverting beat periods. […]

SMILES strings stand for the structures.

T1 sequence (P08069 31-1367): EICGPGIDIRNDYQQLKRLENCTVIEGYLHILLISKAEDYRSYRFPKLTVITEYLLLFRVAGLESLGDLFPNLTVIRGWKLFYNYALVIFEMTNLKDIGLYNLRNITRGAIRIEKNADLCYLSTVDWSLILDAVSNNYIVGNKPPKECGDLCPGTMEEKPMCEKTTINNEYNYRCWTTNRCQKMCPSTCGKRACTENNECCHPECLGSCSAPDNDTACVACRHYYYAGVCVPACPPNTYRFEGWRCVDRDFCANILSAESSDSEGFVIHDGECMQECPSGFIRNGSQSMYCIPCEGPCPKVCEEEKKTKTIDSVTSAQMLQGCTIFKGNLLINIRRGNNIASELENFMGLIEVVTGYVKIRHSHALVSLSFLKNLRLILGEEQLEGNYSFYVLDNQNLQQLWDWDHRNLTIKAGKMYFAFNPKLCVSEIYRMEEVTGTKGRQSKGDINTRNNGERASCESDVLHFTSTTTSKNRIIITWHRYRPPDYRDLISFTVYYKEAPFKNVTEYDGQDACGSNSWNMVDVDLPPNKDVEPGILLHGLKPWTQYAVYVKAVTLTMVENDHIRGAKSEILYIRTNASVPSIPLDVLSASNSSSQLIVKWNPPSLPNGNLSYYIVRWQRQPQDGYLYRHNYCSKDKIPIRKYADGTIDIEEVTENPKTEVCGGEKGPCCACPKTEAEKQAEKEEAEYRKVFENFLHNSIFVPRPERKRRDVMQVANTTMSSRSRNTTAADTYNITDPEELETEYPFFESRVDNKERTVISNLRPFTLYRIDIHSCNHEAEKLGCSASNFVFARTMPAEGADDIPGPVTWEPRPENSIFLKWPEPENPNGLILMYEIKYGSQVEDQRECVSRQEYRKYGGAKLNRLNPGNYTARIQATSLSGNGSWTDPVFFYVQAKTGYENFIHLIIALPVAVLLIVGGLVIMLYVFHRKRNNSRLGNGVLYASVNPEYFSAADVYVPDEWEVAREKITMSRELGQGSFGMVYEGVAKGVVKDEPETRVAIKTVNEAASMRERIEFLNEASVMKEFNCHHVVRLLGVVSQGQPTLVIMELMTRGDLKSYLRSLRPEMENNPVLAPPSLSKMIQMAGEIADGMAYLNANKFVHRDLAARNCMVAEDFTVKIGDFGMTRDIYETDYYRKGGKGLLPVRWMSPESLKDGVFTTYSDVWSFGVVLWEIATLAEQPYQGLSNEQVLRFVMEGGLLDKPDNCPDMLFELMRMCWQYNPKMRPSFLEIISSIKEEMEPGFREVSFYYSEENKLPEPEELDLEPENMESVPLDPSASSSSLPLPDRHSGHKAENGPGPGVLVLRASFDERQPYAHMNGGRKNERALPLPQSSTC

As for `C[C@]1(O)C[C@@H](c2nc(-c3ccc4ccc(-c5ccccc5)nc4c3)c3c(N)nccn32)C1` [linsitinib], the “clinical outcome in ES” value in data set [1] (Phase II clinical trial, no patients completing the trial) is recorded as “unable to stop progression of ES”. For the same compound, the atrial fibrillation in data set [1] (clinical trials of other types of cancer) is 3.75-5%. Besides, the “drug efficacy (luminescence viability)” value in data set [2] was “significant drug efficacy”. The “response of cell viability (luminescence) to concentration” value in data set [3] (0, 1.2, 12 and 120 μM, 72 hours) was “dose-dependent response”. In data set [3] (12 μM), the “apoptosis (TUNEL assay)” value is recorded as “increases in apoptosis” and the “cell viability (luminescence)” value was “significant reduction”. Besides, in data set [3] (12 μM regimen, 1:1 mixed media), the OCN secretion entry was “increased only slightly” and the “cancer cell population level maintained (luminescence)” value is listed as ~30 % of their starting population. In data set [3] (12 μM, 3-week regimen), the “cytotoxicity (LDH secretion)” value is given as “spiked in both models immediately following drug administration, but significantly more so in the responsive, non-metastatic ES model” and the osteocalcin secretion entry was “decreased”. Moreover, in data set [3] (12 μM, 21-day treatment regimen), the “cancer cell population (luminescence) across the clinical regimen” value is “initial decrease in cancer cell population in the non-metastatic model and this population appeared unable to continue expanding”. The “drug response (luminescence)” value in data set [3] (12 μM, after 3 days) is “significant drug response”. Moreover, the osteopontin secretion result in data set [3] (12 μM, throughout the 21 days) was “significantly increased”. In data set [3] (second 21-day 12 μM regimen on tumors from sorted resistant cells), the “drug response of ES resistant-cell derived tumors (luminescence)” value was “significant initial drug response”. Also, the “IC50 (MTT viability assay)” value in data set [4] is “two orders of magnitude lower than the effective plasma concentration observed in patients”. For the same compound, the “levels of phosphorylated IGF-1R” value on IGF-1 receptor is reported as “significant decreases”. Moreover, in data set [5], the “inotropic response to subsequent isoproterenol” value is listed as “expected inotropic response”.
